Assay results reported in publication PMC10321576, “Cyclic peptides target the aromatic cage of a PHD-finger reader domain to modulate epigenetic protein function” (Chemical Science, 2023).
Where two headings read alike, the source gives them in different places. Peptide text beside a SMILES is read from it.

Assays:
[1] = molecular target: KDM7A Dual (PHD+JmjC) (Homo sapiens, UniProt Q6ZMT4); test: BLI binding; details: 1:1 binding model
Source text: (§1) Figure S2. BLI for KDM7 proteins with cyclic peptides.
(§2) BLI traces for b inding to KDM7 protein domains immobilised by C-terminal His -tag on Ni -NTA
(§3) biosensors, against cyclic peptides. Response trace for each peptide concentration is represented by
(§4) a different colour, with the fitted curves overlaid in black.
(§5) concentration plotted, with 2-fold dilutions thereafter. Dual domain = PHD+JmjC. […]
(§6) against KDM7 and other protein domains. t1/2 = half life (0.693 / Koff)
(§7) (1 picture or pasted object on this page, not shown here)

[2] = molecular target: T1, KDM7A PHD (Homo sapiens, UniProt Q6ZMT4); test: BLI binding; details: 1:1 binding model
T1 construct: KDM7A 38-98; made in house
T1 sequence (Q6ZMT4 38-98): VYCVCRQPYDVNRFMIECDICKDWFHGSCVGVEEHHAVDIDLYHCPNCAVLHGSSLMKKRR
Source text: as §1, §2, §3, §4, §5, §6, §7

[3] = molecular target: KDM7C Dual (PHD+JmjC) (Homo sapiens, UniProt O75151); test: BLI binding; details: 1:1 binding model
KDM7C Dual (PHD+JmjC), sequence (O75151 1-353 limits assumed): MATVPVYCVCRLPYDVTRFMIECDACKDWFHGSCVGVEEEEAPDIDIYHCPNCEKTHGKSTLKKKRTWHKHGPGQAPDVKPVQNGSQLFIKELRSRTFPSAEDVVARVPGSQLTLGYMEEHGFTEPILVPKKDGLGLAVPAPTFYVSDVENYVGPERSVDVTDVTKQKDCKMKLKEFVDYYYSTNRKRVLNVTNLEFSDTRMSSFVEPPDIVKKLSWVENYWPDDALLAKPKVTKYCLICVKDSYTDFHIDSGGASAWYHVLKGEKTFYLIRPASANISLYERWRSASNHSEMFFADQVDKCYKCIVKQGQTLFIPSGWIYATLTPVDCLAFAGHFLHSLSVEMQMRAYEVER
Source text: as §1, §2, §3, §4, §5, §6, §7

[4] = molecular target: T2, KDM7C PHD (Homo sapiens, UniProt O75151); test: BLI binding; details: 1:1 binding model
T2 construct: KDM7C 1-67; made in house
T2 sequence (O75151 1-67): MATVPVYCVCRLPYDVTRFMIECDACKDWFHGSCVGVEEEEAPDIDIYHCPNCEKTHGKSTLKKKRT
Source text: as §1, §2, §3, §4, §5, §6, §7

[5] = molecular target: T3, KDM7B PHD (Homo sapiens, UniProt Q9UPP1); test: BLI binding; parameters: key to BLI Screening, KDM7B PHD: (+) = binding; (-) = no binding; (NS) = non-specific
T3 construct: KDM7B 1-66; made in house
T3 sequence (Q9UPP1 1-66 isoform Q9UPP1-2): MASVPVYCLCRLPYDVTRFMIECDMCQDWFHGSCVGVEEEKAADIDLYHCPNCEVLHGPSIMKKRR
Source text: as §1, §2, §3, §4, §5, §6, §7

[6] = molecular target: T4, KDM7B Dual (PHD+JmjC) (Homo sapiens, UniProt Q9UPP1); test: BLI binding; parameters: key to BLI Screening, KDM7B Dual: (+) = binding; (-) = no binding; (NS) = non-specific
T4 construct: Dual domain = PHD+JmjC; made in house
T4 sequence (Q9UPP1 37-483 limits assumed): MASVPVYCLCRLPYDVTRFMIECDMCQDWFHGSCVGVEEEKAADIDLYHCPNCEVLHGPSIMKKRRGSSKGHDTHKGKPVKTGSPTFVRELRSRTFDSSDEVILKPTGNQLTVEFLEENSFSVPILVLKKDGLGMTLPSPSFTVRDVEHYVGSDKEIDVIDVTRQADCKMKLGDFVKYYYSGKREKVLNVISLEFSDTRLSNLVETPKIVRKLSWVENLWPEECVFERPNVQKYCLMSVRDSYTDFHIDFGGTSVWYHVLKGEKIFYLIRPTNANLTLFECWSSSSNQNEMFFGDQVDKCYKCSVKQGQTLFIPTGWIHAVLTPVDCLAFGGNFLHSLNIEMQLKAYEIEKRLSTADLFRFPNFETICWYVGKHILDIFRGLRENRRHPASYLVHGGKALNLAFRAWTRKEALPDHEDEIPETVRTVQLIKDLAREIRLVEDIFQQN
Source text: as §1, §2, §3, §4, §5, §6, §7

[7] = molecular target: T5, KDM7B JmjC (Homo sapiens, UniProt Q9UPP1); test: BLI binding; parameters: key to BLI Screening, KDM7B JmjC: (+) = binding; (-) = no binding; (NS) = non-specific
T5 construct: made in house
T5 sequence (Q9UPP1 231-387 limits assumed): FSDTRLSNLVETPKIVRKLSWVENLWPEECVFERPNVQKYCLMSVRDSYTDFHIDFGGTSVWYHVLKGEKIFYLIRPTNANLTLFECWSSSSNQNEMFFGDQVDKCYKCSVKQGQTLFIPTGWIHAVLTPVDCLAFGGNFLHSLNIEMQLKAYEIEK
Source text: as §1, §2, §3, §4, §5, §6, §7

[8] = molecular target: T6, HisTrx-KDM7B PHD (Homo sapiens, UniProt Q9UPP1); test: ITC binding
T6 construct: KDM7B 1-66; made in house
T6 sequence (Q9UPP1 1-66 isoform Q9UPP1-2): T3 sequence (Q9UPP1 1-66 isoform Q9UPP1-2)
Method: Figure S8. ITC titration curves for His-Trx-KDM7B PHD.
Top panels are raw heat of injection, bottom panels are normalised data fitted to 1:1 binding model.
His-Trx = His6+thioredoxin. For […]
results of fit and conditions see Figure S10. […]
Figure S10. ITC results: Tabulated values from 1:1 binding model and conditions ITC buffer = 50 mM HEPES, 100 mM NaCl, pH 7.4, 0.2 µm filtered), at 25 °C. Dual = PHD+JmjC. HisTrx = His 6+thioredoxin tag, GST = glutathione S -transferase tag, ZB = Z -basic tag. Syringe contained peptide solution in buffer. Cell contained protein solution in buffer.
as §7

[9] = molecular target: T1, KDM7A PHD; test: AlphaScreen displacement of H3 1-21K4me3-Bt; format: binding; details: average of two independent experiments
Source text: (§8) The functional effect of OC9 on the PHD-finger was further assessed using an AlphaScreen (AS) based proximity assay. […]

[10] = molecular target: KDM7A PHD+JmjC (Homo sapiens, UniProt Q6ZMT4); test: AlphaScreen displacement of H3 1-21K4me3-Bt; format: binding; details: average of two independent experiments
KDM7A PHD+JmjC, sequence (Q6ZMT4 38-386 limits assumed): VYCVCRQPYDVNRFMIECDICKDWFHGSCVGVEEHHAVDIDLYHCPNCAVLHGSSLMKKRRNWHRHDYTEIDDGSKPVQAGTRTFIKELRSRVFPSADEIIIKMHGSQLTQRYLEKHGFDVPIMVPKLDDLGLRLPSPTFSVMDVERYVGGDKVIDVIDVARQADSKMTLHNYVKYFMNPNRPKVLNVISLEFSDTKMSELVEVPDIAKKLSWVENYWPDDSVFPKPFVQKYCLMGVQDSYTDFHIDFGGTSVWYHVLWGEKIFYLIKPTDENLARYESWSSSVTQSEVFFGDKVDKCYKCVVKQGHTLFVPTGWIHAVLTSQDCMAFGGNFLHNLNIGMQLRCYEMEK
Source text: as §8

[11] = molecular target: T3, KDM7B PHD; test: AlphaScreen displacement of H3 1-21K4me3-Bt; format: binding; details: average of at least two independent experiments; read-out: AlphaScreen displacement IC50, KDM7B PHD
Source text: as §8

[12] = molecular target: T7, KDM7B PHD+JmjC (Homo sapiens, UniProt Q9UPP1); test: AlphaScreen displacement of H3 1-21K4me3-Bt; format: binding; details: average of two independent experiments
T7 construct: dual domain (PHD-JmjC) of KDM7B; made in house
T7 sequence (Q9UPP1 37-483 limits assumed): as the sequence (Q9UPP1 37-483 limits assumed) above
Source text: as §8

[13] = molecular target: T2, KDM7C PHD; test: AlphaScreen displacement of H3 1-21K4me3-Bt; format: binding; details: average of two independent experiments
Source text: as §8

[14] = tested on: KDM2/3/4/5/6; test: KDM selectivity screening by MALDI-TOF-MS; format: biochemical; details: histone peptide substrates; incl. full-length KDM2A and KDM2B
Source text: The panel included full-length recombinant KDM2A and KDM2B which have the closest JmjC-domains to KDM7s, but with unrelated PHD-fingers (Fig. S43 and S44 ^†).

[15] = molecular target: T8, KDM7B PHD-finger (Homo sapiens, UniProt Q9UPP1); test: HDX-MS; format: binding; details: 60 minute time-course, relative to DMSO
T8 construct: KDM7B 1-66; His-tag (C); made in house
T8 sequence (Q9UPP1 1-66 isoform Q9UPP1-2): T3 sequence (Q9UPP1 1-66 isoform Q9UPP1-2)
Source text: (§9) To further evaluate the interactions of OC9 with KDM7B we used hydrogen–deuterium exchange mass spectrometry (HDX-MS), which informs on protein dynamics by following deuterium incorporation into the protein amide backbone (Fig. 2).
(§10) The residue level view was generated by averaging mass changes across overlapping peptide fragments. Supporting data available in ESI. ^† K4me3 binding aromatic cage residues (‘YYMW’ Fig. 1a) are indicated by red asterix.

[16] = molecular target: T9, KDM7B dual domain (Homo sapiens, UniProt Q9UPP1); test: HDX-MS; format: binding; details: relative to DMSO
T9 construct: dual domain (PHD-JmjC) of KDM7B; His-tag (C); made in house
T9 sequence (Q9UPP1 37-483 limits assumed): as above
Source text: as §9, §10

[17] = His-tagged protein on Ni-NTA biosensors
[18] = qualitative assessment of binding by BLI
[19] = His-tagged protein on Ni-NTA biosensors, 1:1 binding model

KDM7A Dual (PHD+JmjC), sequence (Q6ZMT4 38-386 limits assumed): as the sequence (Q6ZMT4 38-386 limits assumed) above

koff [1]: 0.0123 ± 0.0001 s⁻¹ | kon [1]: 289000 ± 3000 M⁻¹ s⁻¹ | Kd [1, 17]: 42.5 nM | koff [2]: 0.00679 ± 2e-05 s⁻¹ | kon [2]: 358000 ± 3000 M⁻¹ s⁻¹ | Kd [2, 17]: 19 nM | koff [3]: 0.000137 ± 1e-06 s⁻¹ | kon [3]: 409000 ± 2000 M⁻¹ s⁻¹ | Kd ([3]; read-out: BLI pKD, KDM7C Dual (converted)): 0.316 nM | koff [4]: 0.000483 ± 2e-06 s⁻¹ | kon [4]: 463000 ± 2000 M⁻¹ s⁻¹ | Kd [4, 17]: 1.05 nM | koff ([5]; 1:1 binding model): 0.00143 ± 1e-05 s⁻¹ | kon ([5]; 1:1 binding model): 360000 ± 2000 M⁻¹ s⁻¹ | Kd ([5]; His-tagged protein on Ni-NTA biosensors, 1:1 binding model, read-out: BLI KD, KDM7B PHD): 3.96 nM | BLI Screening, KDM7B PHD [5, 18]: + | koff ([6]; 1:1 binding model): 0.00413 ± 3e-05 s⁻¹ | kon ([6]; 1:1 binding model): 691000 ± 7000 M⁻¹ s⁻¹ | Kd [6, 19]: 5.98 nM | BLI Screening, KDM7B Dual [6, 18]: + | Kd ([7]; 1:1 binding model, read-out: BLI pKD, KDM7B JmjC (converted)): > 1000 nM | BLI KD, KDM7B JmjC [7, 19]: no affinity | BLI Screening, KDM7B JmjC [7, 18]: - | Kd ([8]; 50 mM HEPES, 100 mM NaCl, pH 7.4, 25 °C, 1:1 binding model, His6+thioredoxin tag, read-out: ITC KD, HisTrx-KDM7B PHD): 8.27 nM | ITC ΔH, HisTrx-KDM7B PHD ([8]; 25 °C): -60.0 ± 1.3 kJ mol -1 | Kd ([8]; read-out: ITC pKD, HisTrx-KDM7B PHD (converted)): 7.94 nM | ITC N, HisTrx-KDM7B PHD ([8]; stoichiometry): 0.86 ± 0.01 | IC50 [9]: 62 nM | IC50 [10]: 132 nM | IC50 [11]: 32 nM | IC50 [12]: 95 nM | IC50 [13]: 26 nM | HDX-MS effect on deuterium uptake, KDM7B PHD-finger [15]: affected an even greater proportion
Compound: CC(C)C[C@@H]1NC(=O)[C@H](Cc2ccc(O)cc2)NC(=O)[C@H](Cc2ccc(O)cc2)NC(=O)CSC[C@@H](C(N)=O)NC(=O)[C@H]([C@@H](C)O)NC(=O)[C@H](CCCNC(=N)N)NC(=O)[C@H](Cc2ccccc2)NC(=O)[C@H](C(C)C)NC(=O)[C@H](CO)NC(=O)[C@@H]2CCCN2C(=O)[C@H](Cc2ccc(O)cc2)NC(=O)[C@@H]2CCCN2C(=O)[C@H](Cc2c[nH]cn2)NC(=O)[C@H]([C@@H](C)O)NC1=O [OC9] (HELM PEPTIDE1{[O=C(C[*:3])[*:2]].Y.Y.L.T.H.P.Y.P.S.V.F.R.T.C.[am]}$PEPTIDE1,PEPTIDE1,1:R3-15:R3$$$V2.0)
inhibition of other isolated KDM sub-families (KDM2/3/4/5/6) [14]: no significant inhibition | HDX-MS effect on deuterium uptake, KDM7B dual domain [16]: only reduced deuterium uptake in peptide fragments within the PHD-finger
